The text below walks through data of patent publication US20110053916A1 (Vertex Pharmaceuticals Incorporated, priority 2009, published 2011).

T1 sequence (P9WI81 whole entry): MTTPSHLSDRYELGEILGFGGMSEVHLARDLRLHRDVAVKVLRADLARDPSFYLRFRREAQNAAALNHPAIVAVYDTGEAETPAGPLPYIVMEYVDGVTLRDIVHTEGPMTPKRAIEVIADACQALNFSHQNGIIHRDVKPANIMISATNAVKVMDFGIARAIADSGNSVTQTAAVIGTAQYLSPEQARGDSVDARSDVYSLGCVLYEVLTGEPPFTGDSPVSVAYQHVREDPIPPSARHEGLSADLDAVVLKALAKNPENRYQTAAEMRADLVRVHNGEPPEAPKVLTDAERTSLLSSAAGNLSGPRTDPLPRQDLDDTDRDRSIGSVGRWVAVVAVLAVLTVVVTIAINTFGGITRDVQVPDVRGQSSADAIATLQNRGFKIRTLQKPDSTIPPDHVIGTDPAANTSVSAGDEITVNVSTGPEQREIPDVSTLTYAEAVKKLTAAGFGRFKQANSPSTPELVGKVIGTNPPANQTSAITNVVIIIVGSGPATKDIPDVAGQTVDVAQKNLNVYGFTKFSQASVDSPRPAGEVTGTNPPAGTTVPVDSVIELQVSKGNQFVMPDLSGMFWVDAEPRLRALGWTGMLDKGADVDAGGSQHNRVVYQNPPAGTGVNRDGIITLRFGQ

One test has as its target T1, PknB (Mycobacterium tuberculosis, UniProt P9WI81).
T1 construct: made in house
Description: biochemical. Details: species or system M. tuberculosis. The note with it: 3 nM PknB, 6 uM GarA, 3 μM ATP, 30 min; competitive tight-binding fit; several symbols in a cell = repeat determinations.
With `COc1cnc(N2CCCCC2)nc1Nc1cc(C2CC2)[nH]n1` [Compound 68, N-(5-cyclopropyl-1H-pyrazol-3-yl)-5-methoxy-2-(1-piperidyl)pyrimidin-4-amine], the “Ki Values” is recorded as “A, B**”.

`O=C(NC1CCCCC1)c1nccc(Nc2cc(C3CC3)n[nH]2)n1` [Compound 109, N-cyclohexyl-4-[(5-cyclopropyl-2H-pyrazol-3-yl)amino]pyrimidine-2-carboxamide]: the “Ki Values” is listed as “B, B*”. The same measure, in the same setting: to `N#CCc1ccc(Nc2ncc(Cl)c(Nc3cc(C4CC4)[nH]n3)n2)cc1` [Compound 59, 2-[4-[[5-chloro-4-[(5-cyclopropyl-1H-pyrazol-3-yl)amino]-pyrimidin-2-yl]amino]phenyl]acetonitrile] belongs “B**, B*, B*”; to `NS(=O)(=O)c1ccc(-c2ncc(C#CCO)c(Nc3cc(C4CC4)[nH]n3)n2)s1` [Compound 217, 5-(4-(5-Cyclopropyl-1H-pyrazol-3-ylamino)-5-(3-hydroxyprop-1-ynyl)pyrimidin-2-yl)thiophene-2-sulfonamide], “A**, A*”; to `C#Cc1cnc(-c2ccc(C(=O)NCCNC(C)=O)s2)nc1Nc1cc(C2CC2)n[nH]1` [Compound 206, N-(2-acetamidoethyl)-5-(4-(5-cyclopropyl-1H-pyrazol-3-ylamino)-5-ethynylpyrimidin-2-yl)thiophene-2-carboxamide], “B**, B**, B*”. The same measure, in the same setting: to `c1cc(Nc2cc(C3CC3)[nH]n2)nc(N2CCCCC2)n1` [Compound 64, N-(5-cyclopropyl-1H-pyrazol-3-yl)-2-(1-piperidyl)pyrimidin-4-amine] belongs “A*, B**”.

Still in this test, the particulars now being: 3 nM PknB, 6 uM GarA, 3 μM ATP, 30 min; competitive tight-binding fit; several symbols in a cell = repeat determinations; read-out: Ki Values.
As to `CN1CCN(c2nccc(Nc3cc(C4CC4)[nH]n3)n2)CC1` [Compound 47, N-(5-cyclopropyl-1H-pyrazol-3-yl)-2-(4-methylpiperazin-1-yl)-pyrimidin-4-amine], the Ki was over 4000 nM. The same measure, in the same setting: then `OCc1ccc(-c2nccc(Nc3cc(C4CC4)[nH]n3)n2)s1` [Compound 22, (5-(4-(5-cyclopropyl-1H-pyrazol-3-ylamino)pyrimidin-2-yl)thiophen-2-yl)methanol], with 10 to 50 nM; and `O=S(=O)(c1ccc(-c2ncc(Cl)c(Nc3cc(C4CC4)[nH]n3)n2)s1)N1CCNCC1` [Compound 135, 5-chloro-N-(5-cyclopropyl-1H-pyrazol-3-yl)-2-(5-piperazin-1-ylsulfonyl-2-thienyl)-pyrimidin-4-amine], with 10 to 50 nM. `C#Cc1cnc(-c2ccc(C(=C)C)s2)nc1Nc1cc(C2CC2)n[nH]1` [Compound 119, N-(5-cyclopropyl-2H-pyrazol-3-yl)-5-ethynyl-2-(5-isopropenyl-2-thienyl)-pyrimidin-4-amine]: the Ki lay within 10 to 50 nM. Turning to `NS(=O)(=O)c1ccc(-c2ncc(CCCO)c(Nc3cc(C4CC4)[nH]n3)n2)s1` [Compound 319, 5-[4-[(5-cyclopropyl-1H-pyrazol-3-yl)amino]-5-(3-hydroxypropyl)pyrimidin-2-yl]thiophene-2-sulfonamide], the Ki lay within 1 to 10 nM. The same measure, in the same setting: then `C#Cc1cnc(N2CCCC2)nc1Nc1cc(C2CC2)[nH]n1` [Compound 178, N-(5-cyclopropyl-1H-pyrazol-3-yl)-5-ethynyl-2-pyrrolidin-1-yl-pyrimidin-4-amine], with 100 to 500 nM. For the compound `CC(=O)Nc1cnc(-c2ccc(S(N)(=O)=O)s2)nc1Nc1cc(C2CC2)[nH]n1` [Compound 241, N-[4-[(5-cyclopropyl-1H-pyrazol-3-yl)amino]-2-(5-sulfamoyl-2-thienyl)-pyrimidin-5-yl]acetamide], the Ki fell in the range of 50 to 100 nM. For `NS(=O)(=O)c1ccc(-c2nc(Nc3cc(C4CC4)[nH]n3)cc(C(=O)O)n2)s1` [Compound 283, 6-[(5-cyclopropyl-1H-pyrazol-3-yl)amino]-2-(5-sulfamoyl-2-thienyl)-pyrimidine-4-carboxylic acid], the Ki is 100 to 500 nM.

In the case of `C#Cc1cnc(N2CC[C@H](N)C2)nc1Nc1cc(C2CC2)n[nH]1` [Compound 187, 2-(3-aminopyrrolidin-1-yl)-N-(5-cyclopropyl-2H-pyrazol-3-yl)-5-ethynyl-pyrimidin-4-amine], the Ki was over 4000 nM. The same measure, in the same setting: to `C#Cc1cnc(-c2ccc(S(=O)(=O)NCCNC(C)=O)s2)nc1Nc1cc(C2CC2)[nH]n1` [Compound 181, N-[2-[[5-[4-[(5-cyclopropyl-1H-pyrazol-3-yl)amino]-5-ethynyl-pyrimidin-2-yl]-2-thienyl]sulfonylamino]ethyl]acetamide] belongs 10 to 50 nM. The same measure, in the same setting: then `NNS(=O)(=O)c1ccc(-c2ncc(Cl)c(Nc3cc(C4CC4)[nH]n3)n2)s1` [Compound 251, 5-(5-chloro-4-(5-cyclopropyl-1H-pyrazol-3-ylamino)pyrimidin-2-yl)thiophene-2-sulfonohydrazide], with 10 to 50 nM. The same measure, in the same setting: then `NS(=O)(=O)c1ccc(-c2ncc(Cl)c(Nc3cc(C4CCNC4)n[nH]3)n2)s1` (stereo not drawn) [Compound 263, 5-[5-chloro-4-[(5-pyrrolidin-3-yl-2H-pyrazol-3-yl)amino]-pyrimidin-2-yl]thiophene-2-sulfonamide], with over 4000 nM; and `CC(C)(C)NS(=O)(=O)c1ccc(-c2ncc(C(F)(F)F)c(Nc3cc(C4CC4)n[nH]3)n2)s1` [Compound 162, 5-[4-[(5-cyclopropyl-2H-pyrazol-3-yl)amino]-5-(trifluoromethyl)pyrimidin-2-yl]-N-tert-butyl-thiophene-2-sulfonamide], with 500 to 1000 nM. For `CN(C)CCNS(=O)(=O)c1cccc(-c2ncc(Cl)c(Nc3cc(C4CC4)[nH]n3)n2)c1` [Compound 97, 3-[5-chloro-4-[(5-cyclopropyl-1H-pyrazol-3-yl)amino]-pyrimidin-2-yl]-N-(2-dimethylaminoethyl)benzenesulfonamide], the Ki is 10 to 50 nM.

For the compound `OCC(O)c1ccc(-c2ncc(Cl)c(Nc3cc(C4CC4)[nH]n3)n2)s1` (stereo not drawn) [Compound 327, 1-[5-[5-chloro-4-[(5-cyclopropyl-1H-pyrazol-3-yl)amino]-pyrimidin-2-yl]-2-thienyl]ethane-1,2-diol], the Ki fell in the range of 10 to 50 nM. As to `Oc1cnc(-c2ccccc2)nc1Nc1cc(C2CC2)[nH]n1` [Compound 55, 4-(5-cyclopropyl-1H-pyrazol-3-ylamino)-2-phenylpyrimidin-5-ol], the inhibition constant Ki fell in the range of 1000 to 2000 nM. On the same count and under the same terms, to `N#Cc1ccc(-c2ncc(Cl)c(Nc3cc(C4CC4)[nH]n3)n2)s1` [Compound 140, 5-(5-chloro-4-(5-cyclopropyl-1H-pyrazol-3-ylamino)pyrimidin-2-yl)thiophene-2-carbonitrile] belongs 10 to 50 nM; to `CC(C)(C)NS(=O)(=O)c1ccc(-c2nc(CO)cc(Nc3cc(C4CC4)[nH]n3)n2)s1` [Compound 286, 5-[4-[(5-cyclopropyl-1H-pyrazol-3-yl)amino]-6-(hydroxymethyl)pyrimidin-2-yl]-N-tert-butyl-thiophene-2-sulfonamide], 10 to 50 nM. As to `COC/C=C/c1cnc(-c2ccccc2)nc1Nc1cc(C2CC2)[nH]n1` [Compound 39, (E)-N-(5-cyclopropyl-1H-pyrazol-3-yl)-5-(3-methoxyprop-1-enyl)-2-phenylpyrimidin-4-amine], the Ki lay within 500 to 1000 nM. On the same count and under the same terms, to `C#Cc1cnc(N2CCN(C(C)=O)CC2)nc1Nc1cc(C2CC2)n[nH]1` [Compound 185, 1-[4-[4-[(5-cyclopropyl-2H-pyrazol-3-yl)amino]-5-ethynyl-pyrimidin-2-yl]piperazin-1-yl]ethanone] belongs 500 to 1000 nM; to `NS(=O)(=O)c1ccc(-c2ncc(F)c(Nc3cc(C4CC4)[nH]n3)n2)s1` [Compound 52, 5-(4-(5-cyclopropyl-1H-pyrazol-3-ylamino)-5-fluoropyrimidin-2-yl)thiophene-2-sulfonamide], 1 to 10 nM. Still for that read-out and setting: to `Clc1cnc(-c2ccccn2)nc1Nc1cc(C2CC2)[nH]n1` [Compound 182, 5-chloro-N-(5-cyclopropyl-1H-pyrazol-3-yl)-2-(pyridin-2-yl)pyrimidin-4-amine] belongs 1000 to 2000 nM; to `CC(=O)NCCNS(=O)(=O)c1ccc(-c2ncc(Cl)c(Nc3cc(C4CC4)[nH]n3)n2)s1` [Compound 118, N-(2-(5-(5-chloro-4-(5-cyclopropyl-1H-pyrazol-3-ylamino)pyrimidin-2-yl)thiophene-2-sulfonamido)ethyl)acetamide], 10 to 50 nM; to `C#Cc1cnc(-c2cccc(S(=O)(=O)NCCO)c2)nc1Nc1cc(C2CC2)[nH]n1` [Compound 122, 3-(4-(3-Cyclopropyl-1H-pyrazol-5-ylamino)-5-ethynylpyrimidin-2-yl)-N-(2-hydroxyethyl)benzene sulfonamide], 10 to 50 nM.

Regarding `Cc1cnc(-c2ccc(S(C)(=O)=O)cc2)nc1Nc1cc(C2CC2)[nH]n1` [Compound 20, N-(5-cyclopropyl-1H-pyrazol-3-yl)-5-methyl-2-(4-(methylsulfonyl)phenyl)pyrimidin-4-amine], the Ki fell in the range of 100 to 500 nM. Take `C#Cc1cnc(N2CC[C@@H](N)C2)nc1Nc1cc(C2CC2)n[nH]1` [Compound 184, 2-(3-aminopyrrolidin-1-yl)-N-(5-cyclopropyl-2H-pyrazol-3-yl)-5-ethynyl-pyrimidin-4-amine]: the Ki is over 4000 nM.

`N#Cc1ccc(Nc2ncc(Cl)c(Nc3cc(C4CC4)[nH]n3)n2)cc1` [Compound 84, 4-[[5-chloro-4-[(5-cyclopropyl-1H-pyrazol-3-yl)amino]-pyrimidin-2-yl]amino]benzonitrile]: the Ki fell in the range of 10 to 50 nM. Regarding `CC(C)(C)NS(=O)(=O)c1ccc(-c2nc(Nc3cc(C4CC4)[nH]n3)cc(C(=O)O)n2)s1` [Compound 278, 6-[(5-cyclopropyl-1H-pyrazol-3-yl)amino]-2-[5-(tert-butylsulfamoyl)-2-thienyl]-pyrimidine-4-carboxylic acid], the Ki was 100 to 500 nM. The same measure, in the same setting: then `Cc1cnc(-c2ccc(S(N)(=O)=O)s2)nc1Nc1cc(C2CC2)[nH]n1` [Compound 40, 5-(4-(5-cyclopropyl-1H-pyrazol-3-ylamino)-5-methylpyrimidin-2-yl)thiophene-2-sulfonamide], with 1 to 10 nM; and `O=C(O)c1ccc(-c2ncc(Cl)c(Nc3cc(C4CC4)n[nH]3)n2)s1` [Compound 156, 5-(5-chloro-4-(3-cyclopropyl-1H-pyrazol-5-ylamino)pyrimidin-2-yl)thiophene-2-carboxylic acid], with 50 to 100 nM.

In general, Ki refers to a dissociation constant, usually derived from enzyme kinetics or from competition with a known ligand.
